In one assay the target is T1, HDAC6 (Homo sapiens, UniProt Q9UBN7).
T1 construct: purchased BPS Bioscience 50006
T1 sequence (Q9UBN7 1-1215): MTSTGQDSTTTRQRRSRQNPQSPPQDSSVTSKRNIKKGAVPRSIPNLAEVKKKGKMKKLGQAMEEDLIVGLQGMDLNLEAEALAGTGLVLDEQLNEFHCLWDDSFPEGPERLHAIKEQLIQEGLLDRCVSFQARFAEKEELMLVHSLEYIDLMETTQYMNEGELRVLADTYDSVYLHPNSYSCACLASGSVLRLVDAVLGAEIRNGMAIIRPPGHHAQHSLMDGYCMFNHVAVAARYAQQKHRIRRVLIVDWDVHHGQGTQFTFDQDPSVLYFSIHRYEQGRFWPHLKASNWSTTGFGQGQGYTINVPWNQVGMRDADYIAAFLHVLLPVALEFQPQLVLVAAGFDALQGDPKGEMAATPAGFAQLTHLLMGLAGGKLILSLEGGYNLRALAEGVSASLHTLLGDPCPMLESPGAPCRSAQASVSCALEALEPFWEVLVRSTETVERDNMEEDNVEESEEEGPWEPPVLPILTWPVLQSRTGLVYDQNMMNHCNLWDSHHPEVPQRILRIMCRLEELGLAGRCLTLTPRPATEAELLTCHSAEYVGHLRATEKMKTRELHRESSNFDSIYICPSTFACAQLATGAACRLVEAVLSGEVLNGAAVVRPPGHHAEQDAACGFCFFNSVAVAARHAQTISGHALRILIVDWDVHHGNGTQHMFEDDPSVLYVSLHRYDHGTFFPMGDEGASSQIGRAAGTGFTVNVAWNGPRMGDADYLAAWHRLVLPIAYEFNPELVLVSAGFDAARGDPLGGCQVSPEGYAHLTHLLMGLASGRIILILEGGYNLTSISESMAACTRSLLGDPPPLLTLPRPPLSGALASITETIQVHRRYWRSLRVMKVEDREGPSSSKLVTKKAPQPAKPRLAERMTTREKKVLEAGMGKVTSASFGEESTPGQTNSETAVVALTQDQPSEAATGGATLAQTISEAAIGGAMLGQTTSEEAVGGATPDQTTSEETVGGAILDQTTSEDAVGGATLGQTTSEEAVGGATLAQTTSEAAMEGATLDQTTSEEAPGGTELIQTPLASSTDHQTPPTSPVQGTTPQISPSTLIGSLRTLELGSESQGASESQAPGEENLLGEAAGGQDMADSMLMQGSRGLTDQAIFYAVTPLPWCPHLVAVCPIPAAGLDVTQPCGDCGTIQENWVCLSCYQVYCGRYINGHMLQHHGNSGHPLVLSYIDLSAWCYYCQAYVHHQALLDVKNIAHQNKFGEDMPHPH
Put plainly: In vitro HDAC6 inhibitory assay (BPS Bioscience, fluorogenic). In kind it is biochemical. The following applies: 10 µM. How it is done:
(1 picture or pasted object on this page, not shown here)
HDAC activity assays were performed in duplicates at each concentration. The

In the next assay the test system is BT-549. Put plainly: NCI one-dose screen. The format is cell-based, human. To be noted: Breast BT-549, 10 µM single dose. Summed up: (§1)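 At 10 μM, a single concentration, compounds were evaluated for antiproliferative effect in the NCI 60-line screen, with growth expressed relative to untreated control cells.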
The test system of another assay is HCT-15. Put plainly: NCI one-dose screen. The format is cell-based, human. The following applies: Colon HCT-15, 10 µM single dose. The procedure, abridged: as §1
The next assay has as its system HOP-92. Put plainly: NCI one-dose screen. The format is cell-based, human. To be noted: NSCLC HOP-92, 10 µM single dose. Summed up:
as §1

A further assay concerns K-562. In words: NCI one-dose screen. The format is cell-based, human. The following applies: Leukemia K-562, 10 µM single dose. Summed up: as §1
The subject of another assay is KM12. Put plainly: NCI one-dose screen. In kind it is cell-based, human. The following applies: Colon KM12, 10 µM single dose. The procedure, abridged:
(§2)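 One concentration (10 μM) applied to each line of the full NCI-60 panel; percent growth compared against untreated cells.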

A further assay has as its system MOLT-4. In words: NCI one-dose screen. In kind it is cell-based, human. The following applies: Leukemia MOLT-4, 10 µM single dose. The procedure, abridged:
as §2

The subject of the next assay is NCI-H23. In words: NCI one-dose screen. The format is cell-based, human. To be noted: NSCLC NCI-H23, 10 µM single dose. The procedure, abridged:
as §2

Another assay has as its system OVCAR-3. In words: NCI one-dose screen. The format is cell-based, human. The following applies: Ovarian OVCAR-3, 10 µM single dose. The procedure, abridged:
as §1

The test system of the next assay is PC-3. In words: NCI one-dose screen. In kind it is cell-based, human. To be noted: Prostate PC-3, 10 µM single dose. The procedure, abridged:
(§3)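 Compounds were tested at a single dose of 10 μM across the full NCI-60 cell line panel. Growth was expressed as percent growth relative to untreated control cells, reported as percent inhibition.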

The next assay concerns SK-MEL-28. In words: NCI one-dose screen. In kind it is cell-based, human. To be noted: Melanoma SK-MEL-28, 10 µM single dose. Summed up: as §3
The subject of another assay is T-47D. Put plainly: NCI one-dose screen. In kind it is cell-based, human. To be noted: Breast T-47D, 10 µM single dose. Summed up: as §1
The next assay deals with UACC-62. In words: NCI one-dose screen. In kind it is cell-based, human. To be noted: Melanoma UACC-62, 10 µM single dose. Summed up: as §1
The subject of a further assay is full NCI 60 cell panel. Put plainly: NCI one-dose screen, whole panel statistics. The format is cell-based, human. The following applies: 1.00E-5 Molar; for Mean Growth Percent: mean over panel. Summed up:
as §3

“And” between values parts separate entries of the source, which are not always exact repeats. Identical values can stand only once.

The inhibition is the percentage by which the read-out fell short of the control. With `Cc1c(C(=O)NO)sc2ncnc(Nc3ccc(F)c(Cl)c3)c12` [Compound 15d, 4–(3-chloro-4-fluorophenylamino)-N-hydroxy-5-methylthieno[2,3-d]pyrimidine-6-carboxamide], the “Mean % inhibition HDAC6” value at HDAC6 is given as 4%. Testing at 10 µM at HDAC6 gave an inhibition of 7%. Besides, the “Growth Percent” value was 114.0% and 114.08% with BT-549; 96.0% and 96.09% with HCT-15; 120.5% and 120.52% with HOP-92; 105.3% and 105.38% with K-562; 102.3% and 102.31% in the assay on KM12; 110.0% and 110.03% in the assay with MOLT-4. In addition, the “Growth Percent” value was 95.7% and 95.72% in the assay with NCI-H23; 108.5% and 108.52% with OVCAR-3; 110.4% and 110.42% in the assay on PC-3; 109.6% and 109.62% with SK-MEL-28; 95.4% and 95.46% in the assay with T-47D; 88.5% and 88.53% with UACC-62. The “Delta (one dose mean graph)” value in the assay with full NCI 60 cell panel is reported as 24.43%. In addition, the “Range (one dose mean graph)” value in the assay with full NCI 60 cell panel was 43.45%. For the same compound, in the assay on full NCI 60 cell panel, the “Mean Growth Percent” value turned out to be 101.50%.
As to `Cc1c(C(=O)NCCC(=O)NO)sc2ncnc(Nc3ccccc3)c12` [Compound 19b, N-(3-(hydroxyamino)-3-oxopropyl)-5-methyl-4-(phenylamino)thieno[2,3-d]pyrimidine-6-carboxamide], the inhibition at 10 µM against HDAC6 stood at 10%. Besides, the “Growth Percent” value with BT-549 was 109.1% and 109.16%; in the assay on HCT-15, 95.0% and 95.07%; with HOP-92, 102.5%; with K-562 it was 101.9% and 101.92%; in the assay with KM12, 101.9% and 101.98%; in the assay with MOLT-4, 107.4% and 107.47%. For the same compound, the “Growth Percent” value is 95.7% and 95.71% in the assay with NCI-H23; 115.3% and 115.34% with OVCAR-3; 105.1% and 105.18% in the assay with PC-3; 107.9% and 107.91% in the assay on SK-MEL-28; 101.18% in the assay with T-47D; 95.6% and 95.69% in the assay on UACC-62. The “Delta (one dose mean graph)” value in the assay on full NCI 60 cell panel is reported as 19.11%. Besides, in the assay on full NCI 60 cell panel, the “Range (one dose mean graph)” value amounted to 40.57%. For the same compound, in the assay with full NCI 60 cell panel, the “Mean Growth Percent” value was determined as 100.57%.
`Cc1c(C(=O)NCCC(=O)NO)sc2ncnc(Nc3ccc(Cl)cc3)c12` [Compound 19c, 4–(4-chlorophenylamino)-N-(3-(hydroxyamino)-3-oxopropyl)-5-methylthieno[2,3-d]pyrimidine-6-carboxamide]: on HDAC6, the “Mean % inhibition HDAC6” value was determined as 9%. Further, at HDAC6, at 10 µM the inhibition was 7%. Besides, the “Growth Percent” value was 103.5% and 103.54% with BT-549; 99.7% and 99.76% in the assay with HCT-15; 124.7% and 124.71% in the assay on HOP-92; 106.4% and 106.41% in the assay with K-562; 102.0% and 102.09% in the assay with KM12; 108.6% and 108.67% in the assay on MOLT-4. For the same compound, the “Growth Percent” value with NCI-H23 was 102.7%; with OVCAR-3, 110.3% and 110.31%; with PC-3, 110.4% and 110.47%; with SK-MEL-28, 112.1%; with T-47D, 106.95%; in the assay with UACC-62, 101.7% and 101.73%. Besides, the “Delta (one dose mean graph)” value with full NCI 60 cell panel was found to be 24.83%. For the same compound, the “Range (one dose mean graph)” value in the assay with full NCI 60 cell panel was found to be 44.72%. Also, the “Mean Growth Percent” value in the assay on full NCI 60 cell panel worked out at 104.82%.
As for `Cc1c(C(=O)NCCC(=O)NO)sc2ncnc(Nc3ccc(F)c(Cl)c3)c12` [Compound 19d, 4–(3-chloro-4-fluorophenylamino)-N-(3-(hydroxyamino)-3-oxopropyl)-5-methylthieno[2,3-d]pyrimidine-6-carboxamide], the “Mean % inhibition HDAC6” value at HDAC6 is on record as 0%. Besides, the “Growth Percent” value is 113.9% and 113.96% with BT-549; 101.5% and 101.58% with HCT-15; 117.7% and 117.77% in the assay with HOP-92; 113.3% with K-562; 103.8% and 103.84% with KM12; 115.3% and 115.32% in the assay with MOLT-4. For the same compound, the “Growth Percent” value with NCI-H23 was 100.6%; in the assay with OVCAR-3, 106.5%; in the assay on PC-3 it was 103.5% and 103.52%; with SK-MEL-28, 111.5% and 111.54%; in the assay on T-47D, 106.5% and 106.56%; with UACC-62, 102.3% and 102.36%. Also, the “Delta (one dose mean graph)” value in the assay with full NCI 60 cell panel is listed as 19.56%. Moreover, the “Range (one dose mean graph)” value with full NCI 60 cell panel turned out to be 44.43%. Further, in the assay on full NCI 60 cell panel, the “Mean Growth Percent” value is reported as 104.37%.
At HDAC6, `Cc1c(C(=O)NCCCC(=O)NO)sc2ncnc(Nc3ccccc3)c12` [Compound 20b, N-(4-(hydroxyamino)-4-oxobutyl)-5-methyl-4-(phenylamino)thieno[2,3-d]pyrimidine-6-carboxamide] displayed an inhibition at 10 µM of 56%. In addition, the “Growth Percent” value was 128.8% and 128.88% in the assay on BT-549; 100.2% and 100.23% with HCT-15; 110.5% and 110.53% in the assay with HOP-92; 104.9% and 104.96% in the assay with K-562; 101.4% and 101.41% with KM12; 109.4% and 109.45% in the assay with MOLT-4. For the same compound, the “Growth Percent” value was 99.6% and 99.63% with NCI-H23; 109.4% and 109.49% in the assay on OVCAR-3; 108% with PC-3; 115.5% and 115.55% with SK-MEL-28; 104.4% and 104.47% in the assay with T-47D; 96.8% and 96.85% in the assay on UACC-62. In addition, in the assay with full NCI 60 cell panel, the “Delta (one dose mean graph)” value amounted to 14.62%. Besides, in the assay on full NCI 60 cell panel, the “Range (one dose mean graph)” value was found to be 40.59%. The “Mean Growth Percent” value in the assay on full NCI 60 cell panel was found to be 102.91%.
`Cc1c(C(=O)NCCCC(=O)NO)sc2ncnc(Nc3ccc(Cl)cc3)c12` [Compound 20c, 4–(4-chlorophenylamino)-N-(4-(hydroxyamino)-4-oxobutyl)-5-methylthieno[2,3-d]pyrimidine-6-carboxamide]: the “Mean % inhibition HDAC6” value on HDAC6 stood at 7%. The compound further returned an inhibition at 10 µM at HDAC6 of 9%. In addition, the “Growth Percent” value is 116.5% in the assay on BT-549; 99.0% and 99.06% in the assay on HCT-15; 111.8% and 111.83% in the assay on HOP-92; 108.0% in the assay with K-562; 101.7% and 101.78% with KM12; 108.7% and 108.77% with MOLT-4. For the same compound, the “Growth Percent” value is 94.9% and 94.98% in the assay on NCI-H23; 106.5% and 106.57% in the assay with OVCAR-3; 101.4% and 101.49% in the assay with PC-3; 112.3% and 112.39% in the assay with SK-MEL-28; 105.2% and 105.24% in the assay with T-47D; 98.8% and 98.83% in the assay with UACC-62. The “Delta (one dose mean graph)” value in the assay with full NCI 60 cell panel was 23.92%. Besides, the “Range (one dose mean graph)” value in the assay with full NCI 60 cell panel worked out at 73.06%. For the same compound, the “Mean Growth Percent” value with full NCI 60 cell panel was determined as 103.09%.
